Entries after “also recorded” stand apart in the source; their conditions may differ.
How the values were obtained:
Assay type in all cases: in vivo, mice
[1] = test system: influenza X31 strain (H3N2); conditions: day 7
[2] = test system: influenza X31 strain (H3N2)
[3] = test system: influenza X31 strain (H3N2); assay: T cell recruitment (CD4, CD8 surface markers) by flow cytometry
[4] = test system: influenza X31 strain (H3N2); assay: Total viable cell counts in the airway (BAL) and lung tissue, trypan blue exclusion; conditions: 100 μg/mouse i.p. daily
[5] = test system: influenza X31 strain (H3N2); assay: Macrophages and neutrophils in airspaces and lung by flow cytometry
[6] = test system: influenza X31 strain (H3N2); conditions: lung homogenates, FIG. 9
[7] = early (day 3), 100 μg/mouse i.p. daily, FIG. 5
[8] = day 7, between the animal groups

COc1ccc(C(CC(N)=O)N2Cc3ccccc3C2=O)cc1OC (stereo not shown) [Compound 1]
CD8+ T cells cytokine expression [1]: remained unchanged
CD4+ T cells producing IFNγ in the lung tissue ([1]; vs untreated mice and vehicle controls, FIG. 7): partial reduction
weight loss (percent original weight) ([2]; 100 μg/mouse i.p. daily days 0-6, vs vehicle control and untreated, FIG. 1): significantly reduced weight loss
visible health appearance ([2]; controls hunched and cachexic on day 5): appeared visibly in better health
CD8+ T cells ([3]; any time point analyzed (day 3, day 7)): No difference
early CD4+ T cell recruitment to the airways (BAL) ([3]; day 3, 100 μg/mouse i.p. daily, FIG. 5): reduced
T cell recruitment / later T cell populations (CD4) ([3]; day 7, airway and lung, FIG. 6): no differences; also recorded: did not affect later T cell populations
CD4+ T cells in the lung parenchyma [3, 7]: corresponding accumulation
T cell recruitment [3, 7]: reduced T cell recruitment; also recorded: affected early T cell recruitment
cellular infiltrate into the airway (BAL), total viable cells ([4]; […], FIG. 2): significantly reduced the cellular infiltrate
cell counts in the airway (BAL fluid) relative to infected mice not treated ([4]; day 3): less than half
reduction of cellular infiltrate in the lung parenchyma ([4]; day 3 or day 7, FIG. 2): not observed
reduction of cellular infiltrate into the airway (BAL) ([4]; day 7, FIG. 2): not observed
proportion of macrophages among cells recovered from the airspaces ([5]; […], 100 μg/mouse i.p. daily, FIG. 3): higher proportion
neutrophils (CD11c+ and Ly6g+) in the airspaces, reduction in total cells ([5]; day 3, 100 μg/mouse i.p. daily, FIG. 4): primarily associated with neutrophils
number of macrophages, all sites [5, 8]: no significant differences
number of neutrophils, all sites [5, 8]: no significant differences
recovered viral titer ([6]; early stages of viral replication (day 3)): blunted the recovered viral titer
peak viral load ([6]; 100 μg/mouse i.p. daily): reduced peak viral load

Reference: US9408831B2, “Methods for treating respiratory viral infection” (Celgene Corporation, priority 2010, dated 2016)
